Reference: patent US11008321B2, “Crystalline form of an avibactam derivative” (ARIXA PHARMACEUTICALS, INC., priority 2019, dated 2021)

What was measured:
[1] = trans isomer vs cis isomer; cited from earlier work
[2] = Stability in aqueous suspension formulation (XRPD); format: physicochemical; conditions: 25° C., 24 hours; 0.25 wt % Tween 80, 10 wt % PEG 400, 0.5 wt % methylcellulose, pH 3.0 citrate buffer
Procedure: X-ray powder diffraction (XPRD) analysis was performed using a Panalytical X-Pert Powder XPRD (Malvem Panalytical Ltd.) on a Si zero-background holder. The 20 position was calibrated against a Panalytical Si standard disc. The X-ray wavelength was Kα2/Kα1 (1.540598 Å/1.544425 Å) at a 0.5 intensity ratio. The X-ray tube was set at an output voltage of 45 kV and a current of 40 mA. A ⅛° fixed divergence slit was used and the diffraction patterns were obtained from 3° to 40° (°2θ) in a continuous scan mode using a step size of 0.01310 (2θ) and a scan speed of 0.145 deg/min. An aqueous formulation of crystalline anhydrate (1) was prepared by suspending 100 mg crystalline anhydrate (1) in 100 mL of an aqueous solution containing 0.25 wt % Tween® 80, 10 wt % PEG 400, 0.5 wt % methylcellulose (400 cps), and a pH 3.0 citrate buffer. The suspension was sonicated and equilibrated for 24 hours at 25° C. before filtering out the crystalline anhydrate (1).

[3] = Thermogravimetric analysis; format: physicochemical; conditions: 10° C./min, N2
Procedure: Thermogravimetric analysis was performed using a TA Instruments Q500 TGA calibrated using a nickel reference standard. Samples were placed in an open platinum pan and after equilibrating at 35° C., the samples were heated under a nitrogen (N2) atmosphere at a rate of 10° C./min to a final temperature of 200° C. TGA curves for crystalline ethyl 3-(((((1R,2S,5R)-2-carbamoyl-7-oxo-1,6-diazabicyclo[3.2.1]octan-6-yl)oxy)sulfonyl)oxy)-2,2-dimethylpropanoate anhydrate are shown in FIGS. 2 and 4 show a weight loss of 9.7% between 125° C. to 150° C. The weight loss form 30° C. to 125° C. was 0.77%.

[4] = Jet milling, crystalline form by XRPD before and after; format: physicochemical; conditions: jet milled, particle size about 8.6 μm
Procedure: X-ray powder diffraction (XPRD) analysis was performed using a Panalytical X-Pert Powder XPRD (Malvem Panalytical Ltd.) on a Si zero-background holder. The 20 position was calibrated against a Panalytical Si standard disc. The X-ray wavelength was Kα2/Kα1 (1.540598 Å/1.544425 Å) at a 0.5 intensity ratio. The X-ray tube was set at an output voltage of 45 kV and a current of 40 mA. A ⅛° fixed divergence slit was used and the diffraction patterns were obtained from 3° to 40° (°2θ) in a continuous scan mode using a step size of 0.01310 (2θ) and a scan speed of 0.145 deg/min. Crystalline anhydrate (1) was jet milled to obtain a uniform particle size distribution centered at a about 8.6 μm. An Alpine 50AS (PDS-PL-JM-01) Jet Mill (Hosokawa Alpine) was used to prepare the formulation. The injector gas pressure was 4.0 Bar and the grinding gas pressure was 3.5 Bar. Five (5) gm of crystalline anhydrate (1) was gradually added to the jet mill and collected. The milled product was stored at a temperature from 2° C. to 8° C.

[5] = Stability on exposure to ambient conditions and formulation processing; format: physicochemical
[6] = Dynamic vapor sorption (hygroscopicity); format: physicochemical
Procedure: The hygroscopicity of crystalline ethyl 3-(((((1R,2S,5R)-2-carbamoyl-7-oxo-1,6-diazabicyclo[3.2.1]octan-6-yl)oxy)sulfonyl)oxy)-2,2-dimethylpropanoate anhydrate (1) was evaluated during one vapor sorption/desorption cycle using a SMS DVS Intrinsic from Surface Measurement Systems set at 25° C., with a nitrogen (N2) gas flow rate of 200 mL/min, a dm/dt of 0.02%/min and a minimum dm/dt stability duration of 10 min. Samples (10 mg to 20 mg) were first dried at 25° C. for 180 min under a nitrogen atmosphere. The samples were considered equilibrated with the weight change during a 2-min interval was less than 0.01%. To evaluate the DVS the samples were exposed to a humidity cycle ramped/de-ramped from 5% RH to 95% RH at 10% RH intervals. At each humidity interval, the samples were equilibrated as determined by a less than 0.01% weight change during 5 min.

Nc1nc(/C(=C/CC(=O)O)C(=O)N[C@@H]2C(=O)N3C(C(=O)O)=CCS[C@H]23)cs1 [Ceftibuten, (6R,7R)-7-((Z)-2-(2-amino-4-thiazolyl)-4-carboxycrotonamido)-8-oxo-5-thia-1-azabicyclo(4.2.0)oct-2-ene-2-carboxylic acid]
antibiotic activity of trans isomer relative to cis isomer [1]: about one-eighth

CCOC(=O)C(C)(C)COS(=O)(=O)ON1C(=O)N2C[C@H]1CC[C@H]2C(N)=O [crystalline anhydrate (1), ethyl 3-(((((1R,2S,5R)-2-carbamoyl-7-oxo-1,6-diazabicyclo[3.2.1]octan-6-yl)oxy)sulfonyl)oxy)-2,2-dimethylpropanoate]
stability in an aqueous suspension (XRPD similarity) [2]: stable
weight loss (TGA) ([3]; 30° C. to 125° C.): 0.77%
weight loss (TGA) ([3]; between 125° C. to 150° C.): 9.7%
crystalline form before and after jet-milling (XRPD) [4]: the same
stability following exposure to ambient conditions ([5]; 25° C./60% RH): stable
stability during formulation processing conditions ([5]; formulation processing conditions): stable
change of crystalline form during water absorption/desorption (reversibility of DVS isotherm) ([6]; 25° C., one sorption/desorption cycle, 5% RH to 95% RH): does not change
maximum increase in mass (moisture absorption) ([6]; 25° C./95% RH, humidity range 0% RH to 95% RH, reversible): about 3 wt %
